pIC50: −log10 of the molar value.
Experiments:
Assay type in all cases: cell-based
IKZF3 = biological target: T1, IKZF3 (Homo sapiens, UniProt Q96SW2+Q9UKT9); assay: Western blot degradation of IKZF3 (hPBMC); settings: Table D16
T1 construct: evaluate the effects of the compounds of the present disclosure on the expression of target proteins in cells; endogenous in cells; host or cells: hPBMC
How it was run: (§1)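 Degradation is assessed by immunoblotting lysates of treated cells. Target bands are quantified by grayscale and normalised to an internal control, so degradation rate equals 100% minus % remaining.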

IKZF1 = biological target: T2, IKZF1 (Homo sapiens, UniProt Q13422+Q96SW2); assay: Western blot degradation of IKZF1 (hPBMC); settings: Table D16
T2 construct: evaluate the effects of the compounds of the present disclosure on the expression of target proteins in cells; endogenous in cells; host or cells: hPBMC
How it was run: as §1

MCF7 = assay: CCK-8 proliferation, MCF7 (MCF-7); settings: Homo sapiens, MCF7; CCK-8; read-out: Inhibitory activity (IC50) on tumor cell proliferation, MCF-7
How it was run: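 CCK-8 viability readout; IC50 from growth-inhibition curve fitting. Cells plated, dosed 24h later with a 10-point series, top 10µM, 5-fold steps. Culture at 37°C, 5% CO2.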

CK1a = biological target: T3, CK1a (Homo sapiens, UniProt P48729+Q96SW2); assay: Western blot degradation of CK1a (hPBMC); settings: Table D16
T3 construct: evaluate the effects of the compounds of the present disclosure on the expression of target proteins in cells; endogenous in cells; host or cells: hPBMC
T3 sequence (P48729 whole entry): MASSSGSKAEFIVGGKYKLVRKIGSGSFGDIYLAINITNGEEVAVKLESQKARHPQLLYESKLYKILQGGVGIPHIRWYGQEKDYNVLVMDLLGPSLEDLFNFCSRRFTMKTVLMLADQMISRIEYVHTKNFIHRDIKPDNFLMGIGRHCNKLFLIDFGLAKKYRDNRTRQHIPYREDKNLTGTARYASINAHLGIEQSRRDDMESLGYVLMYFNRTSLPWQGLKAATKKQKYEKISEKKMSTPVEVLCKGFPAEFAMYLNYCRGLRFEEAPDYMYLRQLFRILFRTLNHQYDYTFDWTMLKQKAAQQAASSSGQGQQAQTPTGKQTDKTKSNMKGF
T3 sequence (Q96SW2 whole entry): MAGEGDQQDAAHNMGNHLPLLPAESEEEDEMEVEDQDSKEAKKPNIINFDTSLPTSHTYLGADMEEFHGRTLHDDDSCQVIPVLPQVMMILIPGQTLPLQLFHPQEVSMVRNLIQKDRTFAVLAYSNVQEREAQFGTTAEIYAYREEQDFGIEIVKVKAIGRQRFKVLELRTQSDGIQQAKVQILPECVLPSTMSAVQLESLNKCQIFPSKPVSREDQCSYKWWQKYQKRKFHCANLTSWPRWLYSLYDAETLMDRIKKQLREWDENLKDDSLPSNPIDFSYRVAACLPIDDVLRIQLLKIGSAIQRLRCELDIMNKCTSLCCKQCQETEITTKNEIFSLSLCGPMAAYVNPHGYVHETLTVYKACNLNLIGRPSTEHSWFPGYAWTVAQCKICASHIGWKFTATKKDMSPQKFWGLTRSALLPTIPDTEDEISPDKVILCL
T3 sequence (Q16531 whole entry partner): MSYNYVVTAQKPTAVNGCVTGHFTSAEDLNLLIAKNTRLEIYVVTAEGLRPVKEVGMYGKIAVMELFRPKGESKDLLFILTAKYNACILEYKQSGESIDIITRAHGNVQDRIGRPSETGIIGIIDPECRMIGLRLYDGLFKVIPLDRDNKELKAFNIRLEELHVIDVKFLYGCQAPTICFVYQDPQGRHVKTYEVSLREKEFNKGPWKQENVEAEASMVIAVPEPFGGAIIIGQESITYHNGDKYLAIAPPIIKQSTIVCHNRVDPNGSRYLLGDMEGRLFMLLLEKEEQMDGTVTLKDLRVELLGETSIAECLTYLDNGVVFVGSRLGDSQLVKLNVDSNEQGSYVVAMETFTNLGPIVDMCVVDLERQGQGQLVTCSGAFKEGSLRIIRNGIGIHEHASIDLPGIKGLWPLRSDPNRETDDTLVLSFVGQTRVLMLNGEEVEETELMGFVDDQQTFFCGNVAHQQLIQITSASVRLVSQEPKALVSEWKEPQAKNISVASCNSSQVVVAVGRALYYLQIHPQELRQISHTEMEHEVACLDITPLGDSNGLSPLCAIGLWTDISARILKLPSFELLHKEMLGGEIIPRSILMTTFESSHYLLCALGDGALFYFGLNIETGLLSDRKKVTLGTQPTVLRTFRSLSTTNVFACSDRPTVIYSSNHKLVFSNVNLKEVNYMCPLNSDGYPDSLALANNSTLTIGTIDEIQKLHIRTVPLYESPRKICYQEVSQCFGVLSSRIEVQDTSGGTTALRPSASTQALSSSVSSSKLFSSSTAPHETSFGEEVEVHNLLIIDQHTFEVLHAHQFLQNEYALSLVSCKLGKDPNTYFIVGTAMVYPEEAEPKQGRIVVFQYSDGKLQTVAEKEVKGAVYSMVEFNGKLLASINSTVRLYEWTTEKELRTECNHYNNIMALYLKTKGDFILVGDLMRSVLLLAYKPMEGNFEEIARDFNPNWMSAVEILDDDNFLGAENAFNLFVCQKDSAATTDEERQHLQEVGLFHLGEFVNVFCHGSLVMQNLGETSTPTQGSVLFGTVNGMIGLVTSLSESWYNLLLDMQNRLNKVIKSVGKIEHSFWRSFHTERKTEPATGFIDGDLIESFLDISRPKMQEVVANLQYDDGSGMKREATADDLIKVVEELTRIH
How it was run: as §1

WEE1 = biological target: T4, WEE1 (Homo sapiens, UniProt P30291+Q96SW2); assay: Western blot degradation of WEE1 (hPBMC); settings: Table D16
T4 construct: evaluate the effects of the compounds of the present disclosure on the expression of target proteins in cells; endogenous in cells; host or cells: hPBMC
T4 sequence (P30291 whole entry): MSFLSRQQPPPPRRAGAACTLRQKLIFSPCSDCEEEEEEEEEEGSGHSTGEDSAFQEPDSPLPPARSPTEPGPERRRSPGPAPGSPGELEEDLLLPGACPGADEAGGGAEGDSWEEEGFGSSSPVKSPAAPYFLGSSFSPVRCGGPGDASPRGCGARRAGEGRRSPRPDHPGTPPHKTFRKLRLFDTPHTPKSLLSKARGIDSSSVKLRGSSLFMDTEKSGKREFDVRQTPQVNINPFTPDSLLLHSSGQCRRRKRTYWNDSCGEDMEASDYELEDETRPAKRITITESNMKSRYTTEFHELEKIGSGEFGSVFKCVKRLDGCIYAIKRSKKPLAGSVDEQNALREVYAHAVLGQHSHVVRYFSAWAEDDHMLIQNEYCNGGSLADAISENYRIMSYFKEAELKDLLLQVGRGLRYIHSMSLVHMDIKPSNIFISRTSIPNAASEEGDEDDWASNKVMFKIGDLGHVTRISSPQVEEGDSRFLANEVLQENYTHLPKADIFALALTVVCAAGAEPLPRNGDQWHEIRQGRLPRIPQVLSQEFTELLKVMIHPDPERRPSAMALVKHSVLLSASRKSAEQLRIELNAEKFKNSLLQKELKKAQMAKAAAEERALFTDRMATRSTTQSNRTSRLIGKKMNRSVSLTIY
T4 sequence (Q96SW2 whole entry): as the sequence (Q96SW2 whole entry) above
T4 sequence (Q16531 whole entry partner): as the sequence (Q16531 whole entry partner) above
How it was run: as §1

IKZF2 = biological target: T5, IKZF2 (Homo sapiens, UniProt Q96SW2+Q9UKS7); assay: Western blot degradation of IKZF2 (hPBMC); settings: Table D16
T5 construct: evaluate the effects of the compounds of the present disclosure on the expression of target proteins in cells; endogenous in cells; host or cells: hPBMC
T5 sequence (Q9UKS7 whole entry): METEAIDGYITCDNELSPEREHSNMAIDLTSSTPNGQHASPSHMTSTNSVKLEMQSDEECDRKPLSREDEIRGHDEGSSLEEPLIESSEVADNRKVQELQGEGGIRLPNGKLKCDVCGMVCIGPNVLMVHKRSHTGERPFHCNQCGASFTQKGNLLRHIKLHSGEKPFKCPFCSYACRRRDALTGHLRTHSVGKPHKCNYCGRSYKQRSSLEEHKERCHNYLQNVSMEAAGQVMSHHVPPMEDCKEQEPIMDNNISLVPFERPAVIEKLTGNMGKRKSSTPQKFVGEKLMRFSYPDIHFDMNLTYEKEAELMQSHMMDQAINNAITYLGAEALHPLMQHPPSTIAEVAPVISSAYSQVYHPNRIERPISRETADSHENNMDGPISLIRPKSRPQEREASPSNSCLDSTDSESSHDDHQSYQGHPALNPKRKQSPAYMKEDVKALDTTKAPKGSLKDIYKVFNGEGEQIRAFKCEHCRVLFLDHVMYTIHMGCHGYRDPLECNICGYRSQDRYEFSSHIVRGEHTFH
T5 sequence (Q96SW2 whole entry): as the sequence (Q96SW2 whole entry) above
T5 sequence (Q16531 whole entry partner): as the sequence (Q16531 whole entry partner) above
How it was run: as §1

GSPT1 = biological target: T6, GSPT1 (Homo sapiens, UniProt P15170+Q96SW2); assay: Western blot degradation of GSPT1 (hPBMC); settings: Table D16
T6 construct: evaluate the effects of the compounds of the present disclosure on the expression of target proteins in cells; endogenous in cells; host or cells: hPBMC
T6 sequence (P15170 whole entry): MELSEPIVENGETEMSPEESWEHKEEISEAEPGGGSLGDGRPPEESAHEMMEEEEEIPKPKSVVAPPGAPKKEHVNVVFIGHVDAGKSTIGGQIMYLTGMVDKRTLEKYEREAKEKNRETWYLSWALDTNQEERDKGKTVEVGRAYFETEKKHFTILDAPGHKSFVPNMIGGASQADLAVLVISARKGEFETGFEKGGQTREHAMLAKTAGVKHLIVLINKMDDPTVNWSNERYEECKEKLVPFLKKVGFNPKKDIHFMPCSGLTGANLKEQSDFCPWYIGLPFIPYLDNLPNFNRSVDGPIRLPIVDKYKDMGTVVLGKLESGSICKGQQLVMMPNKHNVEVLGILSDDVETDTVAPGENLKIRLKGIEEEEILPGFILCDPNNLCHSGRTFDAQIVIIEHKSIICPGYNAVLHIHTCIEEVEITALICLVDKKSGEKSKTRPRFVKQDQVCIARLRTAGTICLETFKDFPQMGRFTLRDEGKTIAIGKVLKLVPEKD
T6 sequence (Q96SW2 whole entry): as the sequence (Q96SW2 whole entry) above
T6 sequence (Q16531 whole entry partner): as the sequence (Q16531 whole entry partner) above
How it was run: as §1

T1 sequence (Q9UKT9 whole entry): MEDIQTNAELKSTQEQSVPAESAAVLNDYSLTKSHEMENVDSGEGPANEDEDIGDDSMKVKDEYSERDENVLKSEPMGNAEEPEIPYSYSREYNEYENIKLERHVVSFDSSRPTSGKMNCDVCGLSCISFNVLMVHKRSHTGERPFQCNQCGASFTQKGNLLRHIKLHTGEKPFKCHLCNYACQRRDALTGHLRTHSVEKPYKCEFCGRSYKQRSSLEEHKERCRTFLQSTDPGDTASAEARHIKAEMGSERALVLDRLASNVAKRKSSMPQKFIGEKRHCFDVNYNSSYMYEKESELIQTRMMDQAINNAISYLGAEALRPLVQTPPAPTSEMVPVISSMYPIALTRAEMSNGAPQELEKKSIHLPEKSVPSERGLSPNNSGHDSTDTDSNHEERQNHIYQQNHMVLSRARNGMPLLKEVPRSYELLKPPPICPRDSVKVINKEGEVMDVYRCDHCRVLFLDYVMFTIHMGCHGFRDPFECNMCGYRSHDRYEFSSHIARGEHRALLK
T1 sequence (Q96SW2 whole entry): as the sequence (Q96SW2 whole entry) above
T1 sequence (Q16531 whole entry partner): as the sequence (Q16531 whole entry partner) above

SMILES | Degradation of substrate protein IKZF3 (substrate protein remaining %) (IKZF3) | Degradation of substrate protein IKZF1 (substrate protein remaining %) (IKZF1) | pIC50 (MCF7) | Degradation of substrate protein CKla (substrate protein remaining %) (CK1a) | Degradation of substrate protein WEE1 (substrate protein remaining %) (WEE1) | Degradation of substrate protein IKZF2 (substrate protein remaining %) (IKZF2) | Degradation of substrate protein GSPT1 (substrate protein remaining %) (GSPT1)
O=C1CCC(c2cnc(CO)c(F)c2)C(=O)N1 (stereo not shown) [GT-07049, 3-(5-Fluoro-6-(hydroxymethyl)pyridin-3-yl)piperidine-2,6-dione] | A (A is defined as 0% ≤ substrate protein remaining % ≤ 80%) | B (B is defined as substrate protein remaining % > 80%) | 5.30 to 6.00 | A (A is defined as 0% ≤ substrate protein remaining % ≤ 80%) | B (B is defined as substrate protein remaining % > 80%) | A (A is defined as 0% ≤ substrate protein remaining % ≤ 80%) | A (A is defined as 0% ≤ substrate protein remaining % ≤ 80%)
NCc1cncc(N2CCC(=O)NC2=O)c1 [GT-07077, 1-(5-(Aminomethyl)pyridin-3-yl)dihydropyrimidine-2,4(1H,3H)-dione] | B (B is defined as substrate protein remaining % > 80%) | B (B is defined as substrate protein remaining % > 80%) | 5.30 to 6.00 | B (B is defined as substrate protein remaining % > 80%) | B (B is defined as substrate protein remaining % > 80%) | B (B is defined as substrate protein remaining % > 80%) | A (A is defined as 0% ≤ substrate protein remaining % ≤ 80%)
O=C1CCC(Nc2cc(CO)ccn2)C(=O)N1 (stereo not shown) [GT-07366, 3-((4-(Hydroxymethyl)pyridin-2-yl)amino)piperidine-2,6-dione] | B (B is defined as substrate protein remaining % > 80%) | B (B is defined as substrate protein remaining % > 80%) | 5.30 to 6.00 | A (A is defined as 0% ≤ substrate protein remaining % ≤ 80%) | B (B is defined as substrate protein remaining % > 80%) | B (B is defined as substrate protein remaining % > 80%) | A (A is defined as 0% ≤ substrate protein remaining % ≤ 80%)
O=C1CCC(c2ncccc2CO)C(=O)N1 (stereo not shown) [GT-07370, 3-(3-(Hydroxymethyl)pyridin-2-yl)piperidine-2,6-dione] | B (B is defined as substrate protein remaining % > 80%) | B (B is defined as substrate protein remaining % > 80%) | 5.30 to 6.00 | A (A is defined as 0% ≤ substrate protein remaining % ≤ 80%) | B (B is defined as substrate protein remaining % > 80%) | B (B is defined as substrate protein remaining % > 80%) | A (A is defined as 0% ≤ substrate protein remaining % ≤ 80%)
O=C1CCC(Nc2ccc(CO)nc2)C(=O)N1 (stereo not shown) [GT-07446, 3-((6-(Hydroxymethyl)pyridin-3-yl)amino)piperidine-2,6-dione] | A (A is defined as 0% ≤ substrate protein remaining % ≤ 80%) | A (A is defined as 0% ≤ substrate protein remaining % ≤ 80%) | 5.30 to 6.00 | A (A is defined as 0% ≤ substrate protein remaining % ≤ 80%) | A (A is defined as 0% ≤ substrate protein remaining % ≤ 80%) | A (A is defined as 0% ≤ substrate protein remaining % ≤ 80%) | A (A is defined as 0% ≤ substrate protein remaining % ≤ 80%)
O=Cc1cccnc1NC1CCC(=O)NC1=O (stereo not shown) [GT-07447, 2-((2,6-Dioxopiperidin-3-yl)amino)nicotinaldehyde] | A (A is defined as 0% ≤ substrate protein remaining % ≤ 80%) | A (A is defined as 0% ≤ substrate protein remaining % ≤ 80%) | 5.30 to 6.00 | A (A is defined as 0% ≤ substrate protein remaining % ≤ 80%) | A (A is defined as 0% ≤ substrate protein remaining % ≤ 80%) | A (A is defined as 0% ≤ substrate protein remaining % ≤ 80%) | A (A is defined as 0% ≤ substrate protein remaining % ≤ 80%)
O=C1CCC(Nc2ccc(CO)cn2)C(=O)N1 (stereo not shown) [GT-07551, 3-((5-(Hydroxymethyl)pyridin-2-yl)amino)piperidine-2,6-dione] | B (B is defined as substrate protein remaining % > 80%) | B (B is defined as substrate protein remaining % > 80%) | 5.30 to 6.00 | B (B is defined as substrate protein remaining % > 80%) | A (A is defined as 0% ≤ substrate protein remaining % ≤ 80%) | A (A is defined as 0% ≤ substrate protein remaining % ≤ 80%) | B (B is defined as substrate protein remaining % > 80%)
O=Cc1cncc(NC2CCC(=O)NC2=O)c1 (stereo not shown) [GT-07554, 5-((2,6-Dioxopiperidin-3-yl)amino)nicotinaldehyde] | A (A is defined as 0% ≤ substrate protein remaining % ≤ 80%) | A (A is defined as 0% ≤ substrate protein remaining % ≤ 80%) | 5.30 to 6.00 | A (A is defined as 0% ≤ substrate protein remaining % ≤ 80%) | A (A is defined as 0% ≤ substrate protein remaining % ≤ 80%) | A (A is defined as 0% ≤ substrate protein remaining % ≤ 80%) | B (B is defined as substrate protein remaining % > 80%)
O=C1CCN(c2cnc(CO)c(F)c2)C(=O)N1 [GT-07555, 1-(5-Fluoro-6-(hydroxymethyl)pyridin-3-yl)dihydropyrimidine-2,4(1H,3H)-dione] | A (A is defined as 0% ≤ substrate protein remaining % ≤ 80%) | A (A is defined as 0% ≤ substrate protein remaining % ≤ 80%) | 5.30 to 6.00 | A (A is defined as 0% ≤ substrate protein remaining % ≤ 80%) | A (A is defined as 0% ≤ substrate protein remaining % ≤ 80%) | A (A is defined as 0% ≤ substrate protein remaining % ≤ 80%) | A (A is defined as 0% ≤ substrate protein remaining % ≤ 80%)
O=C1CCC(Nc2cc(CO)c(F)cn2)C(=O)N1 (stereo not shown) [GT-07725, 3-((5-fluoro-4-(hydroxymethyl)pyridin-2-yl)amino)piperidine-2,6-dione] | A (A is defined as 0% ≤ substrate protein remaining % ≤ 80%) | A (A is defined as 0% ≤ substrate protein remaining % ≤ 80%) | 5.30 to 6.00 | B (B is defined as substrate protein remaining % > 80%) | A (A is defined as 0% ≤ substrate protein remaining % ≤ 80%) | A (A is defined as 0% ≤ substrate protein remaining % ≤ 80%) | A (A is defined as 0% ≤ substrate protein remaining % ≤ 80%)

Reference: patent publication EP4678638A1, “NEW E3 UBIQUITIN LIGASE LIGAND, PROTEIN DEGRADATION AGENT AND USE THEREOF” (priority 2023, dated 2024)
